Experimental data as given in patent US20210177862A1, “METHOD FOR TREATING NEUROCOGNITIVE DYSFUNCTION” (Tonix Pharma Holdings Limited, priority 2008, published 2021).

Assays:
pulmonary sarcoidosis = type: in vivo, human; settings: prednisone tapered from 40 mg to 25 mg a day
Text: (§1) Patient was diagnosed with a medical condition known as pulmonary sarcoidosis in which immune cells (lymphocytes and macrophages) are abnormally activated and accumulate in the lung, progressively destroying the architecture and functional capacity of lung tissue. Treatment is necessary to prevent progression of the disease and loss of more pulmonary functional capacity. Standard treatment is with systemic corticosteroids due to the capacity of corticosteroids for suppressing immune function. Patient was started on prednisone 40 mg by mouth each morning, with a plan to taper the dose by 5 mg every two weeks until at 25 mg a day. After three months the level of response to corticosteroids would be assessed by repeat pulmonary function tests and chest x-ray. If the disease process was responsive to corticosteroids, the treatment would be continued to finish a full year on about 25 mg a day.
The memory disturbance was profound and sharply contrasted with patient's normal memory function. The “foggy” feeling was present all day long, and was similar to the feeling of having taken a sedating antihistamine like diphenhydramine (Benadryl). Patient found they could only concentrate with much effort, with rapidly developing mental fatigue preventing sustained efforts. […]

[1] = test system: corticosteroid-induced cognitive impairment; assay: Case report (Example 1): tianeptine given to a patient with cognitive side effects from prednisone therapy; type: in vivo, human
Text: as §1
The memory disturbance was profound and sharply contrasted with patient's normal memory function. The “foggy” feeling was present all day long, and was similar to the feeling of having taken a sedating antihistamine like diphenhydramine (Benadryl). Patient found they could only concentrate with much effort, with rapidly developing mental fatigue preventing sustained efforts. Examples of memory impairment resulting from the prednisone were much like some of the memory disturbance seen in Alzheimer's dementia in which there is impairment in the process of consolidation of short term memories into long term memories, a process known to depend on intact hippocampal function.
Patient began tianeptine (Stablon) at 12.5 mg, one pill in the morning. Four days later, patient increased the dose to 12.5 mg twice a day, finally, two days after the prior increase, patient increased the dose to 25 mg each morning and 12.5 mg each evening. In the first several days taking tianeptine, patient noted the “foggy” feeling had gone away.
Although beginning tianeptine correlated with the rapid improvement in cognitive function, it was uncertain whether the tianeptine was responsible for the improvement.
There was the alternate possibility that patient was simply adjusting to the corticosteroids, with reduction in the cognitive side effects manifesting over the first several weeks after beginning corticosteroids. Nonetheless, patient continued to take the tianeptine. Also, it seemed possible that prednisone at 40 mg a day had been producing worse side effects than the lower doses of 35 mg, 30 mg, and 25 mg a day patient had tapered down to after starting the tianeptine.
Patient stopped tianeptine treatment two months later, tapering the dose over three days. Within about 2-3 days after the final dose of tianeptine, patient experienced the gradual emergence of the same cognitive side effects of the corticosteroids that patient had been experiencing in before initial tianeptine treatment including poor memory, extreme difficulty concentrating and sustaining mental effort, and the general “foggy” feeling once again pervading. This continued up for two weeks when patient restarted tianeptine treatment. […] Patient has continued on tianeptine 25 mg each morning and 12.5 mg each evening since then.

[2] = patient on prednisone, first several days taking tianeptine

Compound	follow-up pulmonary function tests (pulmonary sarcoidosis)	time frame of effect after initiation of treatment ([1]; mitigation of corticosteroid cognitive side effects) [h]	effect of tianeptine in mitigating the side effects of the corticosteroids ([1]; off/on tianeptine episode, 25 mg each morning and 12.5 mg each evening)	ability to concentrate [1, 2]	episodic memory [1, 2]	"foggy" feeling ([1]; patient on prednisone, first several days taking tianeptine 12.5 mg up to 25 mg morning + 12.5 mg evening, oral)	time after restarting tianeptine to definite improvement ([1]; restart after two weeks off tianeptine, on prednisone) [h]	cognitive function after restarting tianeptine ([1]; three days after restart, on prednisone)	time after final dose of tianeptine to gradual emergence of the same cognitive side effects of the corticosteroids ([1]; tianeptine stopped (tapered over three days), prednisone 25 mg a day continued) [days]
C[C@]12C=CC(=O)C=C1CC[C@@H]1[C@@H]2C(=O)C[C@@]2(C)[C@H]1CC[C@]2(O)C(=O)CO [prednisone]	indicated improvement								
CN1c2ccccc2C(NCCCCCCC(=O)O)c2ccc(Cl)cc2S1(=O)=O (stereo not drawn) [tianeptine, 7-[(3-chloro-6,11-dihydro-6-methyl-dibenzo[c,f][1,2]thiazepin-11-yl)amino] heptanoic acid S,S-dioxide]		24 to 72	large effect	appeared to normalize	significantly improved	had gone away	≤ 24	pretty much returned to normal baseline	2 to 3
